# Measurements published in PubChem BioAssay (NCI).
#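 48-hour exposure; five concentrations; linearly interpolated endpoints. TGI denotes the concentration required for complete inhibition of growth.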
# What was measured:
# Assay in all cases: inhibition of tumour cell growth, NCI panel, 48 h
# SF-295 CNS = tested on: SF-295 CNS
# A549 NSCLC = tested on: A549 NSCLC
# LOX IMVI melanoma = tested on: LOX IMVI melanoma
# OVCAR-5 ovarian = tested on: OVCAR-5 ovarian
# SF-268 CNS = tested on: SF-268 CNS
# HCT-15 colon = tested on: HCT-15 colon
# SNB-75 CNS = tested on: SNB-75 CNS
# HCC-2998 colon = tested on: HCC-2998 colon
# OVCAR-3 ovarian = tested on: OVCAR-3 ovarian
# MCF7 breast = tested on: MCF7 breast
# SK-OV-3 ovarian = tested on: SK-OV-3 ovarian
# CAKI-1 renal = tested on: CAKI-1 renal
# HS 578T breast = tested on: HS 578T breast
# EKVX NSCLC = tested on: EKVX NSCLC
# CCRF-CEM leukemia = tested on: CCRF-CEM leukemia
# NCI-H23 lung = tested on: NCI-H23 lung
# KM12 colon = tested on: KM12 colon
# M14 melanoma = tested on: M14 melanoma
# OVCAR-8 ovarian = tested on: OVCAR-8 ovarian
# SF-539 CNS = tested on: SF-539 CNS
# RPMI-8226 leukemia = tested on: RPMI-8226 leukemia
# DU-145 prostate = tested on: DU-145 prostate
# HCT-116 colon = tested on: HCT-116 colon
# UACC-62 melanoma = tested on: UACC-62 melanoma
# UACC-257 melanoma = tested on: UACC-257 melanoma
# SN12C renal = tested on: SN12C renal
# HOP-92 NSCLC = tested on: HOP-92 NSCLC
# T-47D breast = tested on: T-47D breast
# SNB-19 CNS = tested on: SNB-19 CNS
# NCI/ADR-RES ovarian = tested on: NCI/ADR-RES ovarian
# HOP-62 NSCLC = tested on: HOP-62 NSCLC
# SK-MEL-2 melanoma = tested on: SK-MEL-2 melanoma
# MOLT-4 leukemia = tested on: MOLT-4 leukemia
# A498 renal = tested on: A498 renal
# K-562 leukemia = tested on: K-562 leukemia
# COLO 205 colon = tested on: COLO 205 colon
# U251 CNS = tested on: U251 CNS
# NCI-H522 lung = tested on: NCI-H522 lung
# SK-MEL-5 melanoma = tested on: SK-MEL-5 melanoma
# SW-620 colon = tested on: SW-620 colon
# SK-MEL-28 melanoma = tested on: SK-MEL-28 melanoma
# HT29 colon = tested on: HT29 colon
# IGROV1 ovarian = tested on: IGROV1 ovarian
# PC-3 prostate = tested on: PC-3 prostate
# NCI-H226 lung = tested on: NCI-H226 lung
# MDA-MB-435 = tested on: MDA-MB-435
# 786-0 renal = tested on: 786-0 renal
# TK-10 renal = tested on: TK-10 renal
# MALME-3M melanoma = tested on: MALME-3M melanoma
# BT-549 breast = tested on: BT-549 breast
# MDA-MB-231 breast = tested on: MDA-MB-231 breast
# NCI-H460 lung = tested on: NCI-H460 lung
# RXF 393 renal = tested on: RXF 393 renal
# MDA-N = tested on: MDA-N
# OVCAR-4 ovarian = tested on: OVCAR-4 ovarian
# ACHN renal = tested on: ACHN renal
# HL-60(TB) leukemia = tested on: HL-60(TB) leukemia
# UO-31 renal = tested on: UO-31 renal
# SR leukemia = tested on: SR leukemia
smiles,measurement,setting,value
N=C(N)SC1c2ccccc2-c2cc([N+](=O)[O-])ccc21 (configuration not stated),TGI,SF-295 CNS,15.7 µM
same,TGI,A549 NSCLC,19.4 µM
same,TGI,LOX IMVI melanoma,22.1 µM
same,TGI,OVCAR-5 ovarian,26.7 µM
same,TGI,SF-268 CNS,14.3 µM
same,TGI,HCT-15 colon,22.6 µM
same,TGI,SNB-75 CNS,5.7 µM
same,TGI,HCC-2998 colon,9.84 µM
same,TGI,OVCAR-3 ovarian,7.47 µM
same,TGI,MCF7 breast,12.4 µM
same,TGI,SK-OV-3 ovarian,18.9 µM
same,TGI,CAKI-1 renal,19.3 µM
same,TGI,HS 578T breast,12.2 µM
same,TGI,EKVX NSCLC,29 µM
same,TGI,CCRF-CEM leukemia,20.3 µM
same,TGI,NCI-H23 lung,18.3 µM
same,TGI,KM12 colon,11.4 µM
same,TGI,M14 melanoma,17.7 µM
same,TGI,OVCAR-8 ovarian,37.1 µM
same,TGI,SF-539 CNS,13.7 µM
same,TGI,RPMI-8226 leukemia,30.1 µM
same,TGI,DU-145 prostate,15.9 µM
same,TGI,HCT-116 colon,16.3 µM
same,TGI,UACC-62 melanoma,10.1 µM
same,TGI,UACC-257 melanoma,20.9 µM
same,TGI,SN12C renal,26.6 µM
same,TGI,HOP-92 NSCLC,33.5 µM
same,TGI,T-47D breast,16.2 µM
same,TGI,SNB-19 CNS,14.3 µM
same,TGI,NCI/ADR-RES ovarian,16 µM
same,TGI,HOP-62 NSCLC,21.2 µM
same,TGI,SK-MEL-2 melanoma,13.9 µM
same,TGI,MOLT-4 leukemia,17.5 µM
same,TGI,A498 renal,14.6 µM
same,TGI,K-562 leukemia,22 µM
same,TGI,COLO 205 colon,9.77 µM
same,TGI,U251 CNS,8.95 µM
same,TGI,NCI-H522 lung,6.47 µM
same,TGI,SK-MEL-5 melanoma,10.6 µM
same,TGI,SW-620 colon,22.1 µM
same,TGI,SK-MEL-28 melanoma,17.5 µM
same,TGI,HT29 colon,13.5 µM
same,TGI,IGROV1 ovarian,18 µM
same,TGI,PC-3 prostate,13.8 µM
same,TGI,NCI-H226 lung,21 µM
same,TGI,MDA-MB-435,4.26 µM
same,TGI,786-0 renal,14.9 µM
same,TGI,TK-10 renal,21.3 µM
same,TGI,MALME-3M melanoma,16.9 µM
same,TGI,BT-549 breast,19.3 µM
same,TGI,MDA-MB-231 breast,23.6 µM
same,TGI,NCI-H460 lung,17.2 µM
same,TGI,RXF 393 renal,10.3 µM
same,TGI,MDA-N,10.9 µM
same,TGI,OVCAR-4 ovarian,17.3 µM
same,TGI,ACHN renal,18.9 µM
same,TGI,HL-60(TB) leukemia,11.9 µM
same,TGI,UO-31 renal,20.3 µM
same,TGI,SR leukemia,21.9 µM
COc1ccc(Oc2nc3cc(C(F)(F)F)ccc3nc2C(C)C)cc1,TGI,SF-295 CNS,51 µM
same,TGI,A549 NSCLC,> 100 µM
same,TGI,LOX IMVI melanoma,30.5 µM
same,TGI,OVCAR-5 ovarian,77.4 µM
same,TGI,SF-268 CNS,> 100 µM
same,TGI,HCT-15 colon,59.4 µM
same,TGI,SNB-75 CNS,95.7 µM
same,TGI,HCC-2998 colon,41.5 µM
same,TGI,OVCAR-3 ovarian,93.3 µM
same,TGI,MCF7 breast,39.5 µM
same,TGI,SK-OV-3 ovarian,> 100 µM
same,TGI,CAKI-1 renal,> 100 µM
same,TGI,HS 578T breast,> 100 µM
same,TGI,EKVX NSCLC,50.1 µM
same,TGI,CCRF-CEM leukemia,> 100 µM
same,TGI,NCI-H23 lung,52.6 µM
same,TGI,KM12 colon,> 100 µM
same,TGI,M14 melanoma,> 100 µM
same,TGI,OVCAR-8 ovarian,94.5 µM
same,TGI,SF-539 CNS,> 100 µM
same,TGI,RPMI-8226 leukemia,42.4 µM
same,TGI,DU-145 prostate,> 100 µM
same,TGI,HCT-116 colon,> 100 µM
same,TGI,UACC-62 melanoma,> 100 µM
same,TGI,UACC-257 melanoma,73.9 µM
same,TGI,SN12C renal,59.7 µM
same,TGI,HOP-92 NSCLC,54.9 µM
same,TGI,T-47D breast,54.4 µM
same,TGI,SNB-19 CNS,> 100 µM
same,TGI,NCI/ADR-RES ovarian,44.1 µM
same,TGI,HOP-62 NSCLC,> 100 µM
same,TGI,SK-MEL-2 melanoma,38.5 µM
same,TGI,MOLT-4 leukemia,36.9 µM
same,TGI,A498 renal,58.3 µM
same,TGI,K-562 leukemia,86.7 µM
same,TGI,COLO 205 colon,30.2 µM
same,TGI,U251 CNS,50.8 µM
same,TGI,NCI-H522 lung,41.3 µM
same,TGI,SK-MEL-5 melanoma,52.2 µM
same,TGI,SW-620 colon,84.2 µM
same,TGI,SK-MEL-28 melanoma,> 100 µM
same,TGI,HT29 colon,44.6 µM
same,TGI,IGROV1 ovarian,82.7 µM
same,TGI,PC-3 prostate,> 100 µM
same,TGI,NCI-H226 lung,49.6 µM
same,TGI,MDA-MB-435,> 100 µM
same,TGI,786-0 renal,> 100 µM
same,TGI,TK-10 renal,> 100 µM
same,TGI,MALME-3M melanoma,72.4 µM
same,TGI,BT-549 breast,65.8 µM
same,TGI,MDA-MB-231 breast,79 µM
same,TGI,NCI-H460 lung,68.8 µM
same,TGI,RXF 393 renal,40.7 µM
same,TGI,MDA-N,> 100 µM
same,TGI,OVCAR-4 ovarian,> 100 µM
same,TGI,ACHN renal,90.4 µM
same,TGI,HL-60(TB) leukemia,37.7 µM
same,TGI,UO-31 renal,95 µM
same,TGI,SR leukemia,36.6 µM
COc1ccc(-c2c(N)n(-c3cc(OC)cc(OC)c3)c(=O)c3cc([N+](=O)[O-])ccc23)cc1,TGI,SF-295 CNS,> 100 µM
same,TGI,A549 NSCLC,> 100 µM
same,TGI,LOX IMVI melanoma,> 100 µM
same,TGI,OVCAR-5 ovarian,> 100 µM
same,TGI,SF-268 CNS,> 100 µM
same,TGI,HCT-15 colon,> 100 µM
same,TGI,SNB-75 CNS,> 100 µM
same,TGI,HCC-2998 colon,> 100 µM
same,TGI,OVCAR-3 ovarian,> 100 µM
same,TGI,MCF7 breast,> 100 µM
same,TGI,SK-OV-3 ovarian,> 100 µM
same,TGI,CAKI-1 renal,> 31.6 µM
same,TGI,HS 578T breast,> 100 µM
same,TGI,EKVX NSCLC,> 100 µM
same,TGI,CCRF-CEM leukemia,> 100 µM
same,TGI,NCI-H23 lung,> 100 µM
same,TGI,KM12 colon,> 100 µM
same,TGI,M14 melanoma,> 100 µM
same,TGI,OVCAR-8 ovarian,> 100 µM
same,TGI,SF-539 CNS,> 100 µM
same,TGI,RPMI-8226 leukemia,> 100 µM
same,TGI,DU-145 prostate,> 100 µM
same,TGI,HCT-116 colon,> 100 µM
same,TGI,UACC-62 melanoma,> 100 µM
same,TGI,UACC-257 melanoma,> 100 µM
same,TGI,SN12C renal,> 100 µM
same,TGI,HOP-92 NSCLC,34.1 µM
same,TGI,T-47D breast,> 100 µM
same,TGI,SNB-19 CNS,99.5 µM
same,TGI,NCI/ADR-RES ovarian,> 100 µM
same,TGI,HOP-62 NSCLC,> 100 µM
same,TGI,SK-MEL-2 melanoma,> 100 µM
same,TGI,MOLT-4 leukemia,> 100 µM
same,TGI,A498 renal,98.5 µM
same,TGI,K-562 leukemia,> 100 µM
same,TGI,COLO 205 colon,> 100 µM
same,TGI,U251 CNS,> 100 µM
same,TGI,NCI-H522 lung,> 100 µM
same,TGI,SK-MEL-5 melanoma,> 100 µM
same,TGI,SW-620 colon,> 100 µM
same,TGI,SK-MEL-28 melanoma,> 100 µM
same,TGI,HT29 colon,> 100 µM
same,TGI,IGROV1 ovarian,> 100 µM
same,TGI,PC-3 prostate,> 100 µM
same,TGI,NCI-H226 lung,> 100 µM
same,TGI,MDA-MB-435,> 100 µM
same,TGI,786-0 renal,> 100 µM
same,TGI,TK-10 renal,> 100 µM
same,TGI,MALME-3M melanoma,> 100 µM
same,TGI,BT-549 breast,> 93.6 µM
same,TGI,MDA-MB-231 breast,> 100 µM
same,TGI,NCI-H460 lung,> 100 µM
same,TGI,RXF 393 renal,> 100 µM
same,TGI,MDA-N,> 100 µM
same,TGI,OVCAR-4 ovarian,> 100 µM
same,TGI,ACHN renal,> 100 µM
same,TGI,HL-60(TB) leukemia,> 100 µM
same,TGI,UO-31 renal,> 100 µM
same,TGI,SR leukemia,> 100 µM
